In patent US7365088B2, “Indazole-derivatives as factor Xa inhibitors” (Sanofi-Aventis Deutschland GmbH, priority 2003, dated 2008):

Each compound was assayed against human factor Xa (Homo sapiens, UniProt P00742) (assay: Factor Xa assay (chromogenic, substrate S-2765)).
Sequence of human factor Xa (P00742 235-488 limits assumed): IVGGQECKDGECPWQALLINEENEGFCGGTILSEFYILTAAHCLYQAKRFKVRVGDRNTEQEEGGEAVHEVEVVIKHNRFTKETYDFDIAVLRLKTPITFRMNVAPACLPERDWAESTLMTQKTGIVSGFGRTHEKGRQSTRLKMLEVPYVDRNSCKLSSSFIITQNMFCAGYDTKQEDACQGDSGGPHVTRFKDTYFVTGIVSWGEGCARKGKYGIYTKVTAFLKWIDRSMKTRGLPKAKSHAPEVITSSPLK
Sequence of human factor Xa (P00742 41-179 partner limits assumed): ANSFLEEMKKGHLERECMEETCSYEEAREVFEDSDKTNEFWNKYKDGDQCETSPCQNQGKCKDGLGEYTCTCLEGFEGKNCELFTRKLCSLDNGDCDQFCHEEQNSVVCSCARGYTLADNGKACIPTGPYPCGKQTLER

Point of comparison: `COC(=O)c1ccc2c(c1)c(C(=O)Nc1ccc(N3CCOCC3=O)cc1)nn2Cc1cc(-c2ccc(Cl)s2)on1` [Example 47, 1-[5-(5-Chloro-thiophen-2-yl)-isoxazol-3-ylmethyl]-3-[4-(3-oxo-morpholin-4-yl)-phenylcarbamoyl]-1H-indazole-5-carboxylic acid methyl ester], Ki 9 nM. Against it:
- CCOC(=O)OC(C)OC(=O)c1ccc2c(c1)c(C(=O)NC1CCN(C(C)C)CC1)nn2Cc1cc(-c2ccc(Cl)s2)on1 (centres unmarked) [Example 9, 1-[5-(5-Chloro-thiophen-2-yl)-isoxazol-3-ylmethyl]-3-(1-isopropyl-piperidin-4-ylcarbamoyl)-1H-indazole-5-carboxylic acid 1-ethoxycarbonyloxy-ethyl ester] — 9.1-fold higher, 82 nM
- CC(C)N1CCC(NC(=O)c2nn(Cc3cc(-c4ccc(Cl)s4)on3)c3ccc(C(=O)N(C)CCO)cc23)CC1 [Example 18, 1-[5-(5-Chloro-thiophen-2-yl)-isoxazol-3-ylmethyl]-1H-indazole-3,5-dicarboxylic acid 5-[(2-hydroxy-ethyl)-methyl-amide]3-[(1-isopropyl-piperidin-4-yl)-amide]] — within 1.5-fold, 13 nM
- CC(C)N1CCC(NC(=O)c2nn(Cc3cc(-c4ccc(Cl)s4)on3)c3ccc(C(=O)N4CC[C@H]4C(=O)O)cc23)CC1 [Example 26, 1-[1-[5-(5-Chloro-thiophen-2-yl)-isoxazol-3-ylmethyl]-3-(1-isopropyl-piperidin-4-ylcarbamoyl)-1H-indazole-5-carbonyl]-(2S)-azetidine-2-carboxylic acid] — 1.9-fold higher, 17 nM
- CC(C)N1CCC(NC(=O)c2nn(Cc3cc(-c4ccc(Cl)s4)on3)c3ccc(C(=O)OCCO)cc23)CC1 [Example 29, 1-[5-(5-Chloro-thiophen-2-yl)-isoxazol-3-ylmethyl]-3-(1-isopropyl-piperidin-4-ylcarbamoyl)-1H-indazole-5-carboxylic acid 2-hydroxy-ethyl ester] — 4.3-fold higher, 39 nM
- CC(C)N1CCC(NC(=O)c2nn(Cc3cc(-c4ccc(Cl)s4)on3)c3ccc(C(=O)NCCS(C)(=O)=O)cc23)CC1 [Example 13, 1-[5-(5-Chloro-thiophen-2-yl)-isoxazol-3-ylmethyl]-1H-indazole-3,5-dicarboxylic acid 3-[(1-isopropyl-piperidin-4-yl)-amide]5-[(2-methanesulfonyl-ethyl)-amide]] — 4.4-fold higher, 40 nM
- CC(C)N1CCC(NC(=O)c2nn(Cc3cc(-c4ccc(Cl)s4)on3)c3cccc(-c4noc(=O)[nH]4)c23)CC1 [Example 11, 1-[5-(5-Chloro-thiophen-2-yl)-isoxazol-3-ylmethyl]-4-(5-oxo-4,5-dihydro-[1,2,4]oxadiazol-3-yl)-1H-indazole-3-carboxylic acid (1-isopropyl-piperidin-4-yl)-amide] — within 1.5-fold, 7 nM
- O=C(Nc1ccc(-c2c[nH]cn2)cc1)c1nn(Cc2cc(-c3ccc(Cl)s3)on2)c2ccccc12 [Example 45, 1-[5-(5-Chloro-thiophen-2-yl)-isoxazol-3-ylmethyl]-1H-indazole-3-carboxylic acid [4-(1H-imidazol-4-yl)-phenyl]-amide] — 20-fold higher, 180 nM
- CC(C)N1CCC(NC(=O)c2nn(Cc3cc(-c4ccc(Cl)s4)on3)c3ccc(C(=O)NCCN4CCOCC4)cc23)CC1 [Example 15, 1-[5-(5-Chloro-thiophen-2-yl)-isoxazol-3-ylmethyl]-1H-indazole-3,5-dicarboxylic acid 3-[(1-isopropyl-piperidin-4-yl)-amide]5-[(2-morpholin-4-yl-ethyl)-amide]] — 5.1-fold higher, 46 nM
- CC(C)N1CCC(NC(=O)c2nn(Cc3cc(-c4ccc(Cl)s4)on3)c3ccc(C(=O)N(CCO)CCO)cc23)CC1 [Example 17, 1-[5-(5-Chloro-thiophen-2-yl)-isoxazol-3-ylmethyl]-1H-indazole-3,5-dicarboxylic acid 5-[bis-(2-hydroxy-ethyl)-amide]3-[(1-isopropyl-piperidin-4-yl)-amide]] — 3.3-fold higher, 30 nM
- CC(C)N1CCC(NC(=O)c2nn(Cc3cc(-c4ccc(Cl)s4)on3)c3ccc(C(=O)O)cc23)CC1 [Example 4, 1-[5-(5-Chloro-thiophen-2-yl)-isoxazol-3-ylmethyl]-3-(1-isopropyl-piperidin-4-ylcarbamoyl)-1H-indazole-5-carboxylic acid] — 2-fold higher, 18 nM
- CC(C)N1CCC(NC(=O)c2nn(Cc3cc(-c4ccc(Cl)s4)on3)c3cc(C(=O)O)ccc23)CC1 [Example 6, 1-[5-(5-Chloro-thiophen-2-yl)-isoxazol-3-ylmethyl]-3-(1-isopropyl-piperidin-4-ylcarbamoyl)-1H-indazole-6-carboxylic acid] — 24-fold higher, 212 nM
- CC(C)N1CCC(NC(=O)c2nn(Cc3cc(-c4ccc(Cl)s4)on3)c3ccc(C(=O)NCCO)cc23)CC1 [Example 22, 1-[5-(5-Chloro-thiophen-2-yl)-isoxazol-3-ylmethyl]-1H-indazole-3,5-dicarboxylic acid 5-[(2-hydroxy-ethyl)-amide]3-[(1-isopropyl-piperidin-4-yl)-amide]] — 3.1-fold higher, 28 nM
- CC(C)N1CCC(NC(=O)c2nn(Cc3cc(-c4ccc(Cl)s4)on3)c3ccc(C(=O)N4CCC4)cc23)CC1 [Example 12, 5-(Azetidine-1-carbonyl)-1-[5-(5-chloro-thiophen-2-yl)-isoxazol-3-ylmethyl]-1H-indazole-3-carboxylic acid (1-isopropyl-piperidin-4-yl)-amide] — 1.8-fold lower, 5 nM
